Where a SMILES comes first, the peptide text is derived from it. Bridges are numbered along the chain shown (N, C = ends). [ ]: non-standard residue; d: D form. The star is where a group is joined. hPhe(3,5-F2-4-CF3) = N[C@@H](CCc1cc(F)c(C(F)(F)F)c(F)c1)C(=O)O; hPhe(3-Cl-4-CF3) = N[C@@H](CCc1ccc(C(F)(F)F)c(Cl)c1)C(=O)O; NPrPhe(4-CF3) = CCCN[C@@H](Cc1ccc(C(F)(F)F)cc1)C(=O)O; NMeAbu(4,4,4-F3) = CN[C@@H](CC(F)(F)F)C(=O)O; Abu(4,4,4-F3) = N[C@@H](CC(F)(F)F)C(=O)O; NMeGly(cPent) = CN[C@H](C(=O)O)C1CCCC1; NMeD = CN[C@@H](CC(=O)O)C(=O)O; NMeL = CN[C@@H](CC(C)C)C(=O)O; αMeV = CC(C)[C@](C)(N)C(=O)O; Morpholide = C1CN(*)CCO1; NMeA = CN[C@@H](C)C(=O)O; Ac5c = NC1(C(=O)O)CCCC1; Aze = O=C(O)[C@@H]1CCN1; Ac4c = NC1(C(=O)O)CCC1; Sar = CNCC(=O)O
Assays:
[1] = target: GDP-bound NRAS wild-type protein (Homo sapiens, UniProt P01111); assay: Binding to NRAS by surface plasmon resonance (SPR), KD and KD ratio to KRAS
How it was run: (§1)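 Compound binding is evaluated by SPR single-cycle kinetics, with concentrations added intermittently from low to high for 75 s each. Target surfaces carry GDP-loaded biotinylated Avi-RAS at about 100–300 RU, regenerated after each cycle; temperature 30°C. A 1:1 binding model gives KD.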

HRAS wild-type protein = HRAS wild-type protein (Homo sapiens, UniProt P01112); assay: Binding to HRAS by surface plasmon resonance (SPR), KD and KD ratio to KRAS
How it was run: as §1

[2] = tested on: human lung cancer strain NCI-H441; format: cell-based
How it was run: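 Proliferation was scored by […] measured after the reagent was added to cultures kept at 37°C in 5% carbon dioxide.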

[3] = ratio of KD for GDP-bound NRAS wild-type protein to KD for KRAS
[4] = ratio of KD for HRAS wild-type protein to KD for KRAS
[5] = ratio of the KD value with respect to GDP-bound NRAS wild-type protein to the KD value with respect to KRAS
[6] = ratio of the KD value with respect to HRAS wild-type protein to the KD value with respect to KRAS

GDP-bound NRAS wild-type protein, sequence (P01111 whole entry): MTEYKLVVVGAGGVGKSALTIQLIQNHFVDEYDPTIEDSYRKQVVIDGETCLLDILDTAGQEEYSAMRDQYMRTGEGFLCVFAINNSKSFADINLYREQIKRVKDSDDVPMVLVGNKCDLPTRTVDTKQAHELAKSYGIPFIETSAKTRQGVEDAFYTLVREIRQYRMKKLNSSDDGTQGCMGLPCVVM
HRAS wild-type protein, sequence (P01112 whole entry): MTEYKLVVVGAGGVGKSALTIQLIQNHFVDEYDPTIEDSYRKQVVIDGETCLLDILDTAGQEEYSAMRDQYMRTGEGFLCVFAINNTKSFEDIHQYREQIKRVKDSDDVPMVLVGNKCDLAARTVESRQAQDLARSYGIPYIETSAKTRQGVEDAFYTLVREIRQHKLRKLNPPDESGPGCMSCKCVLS

Row | IC50 [2] | Compound | NRAS /KRAS [1, 3] | HRAS /KRAS (HRAS wild-type protein; [4]) | NRAS /KRAS [1, 5] | HRAS /KRAS (HRAS wild-type protein; [6]) | NRAS /KRAS ([1]; ratio of KD value for GDP-bound NRAS wild-type protein to KD value for KRAS (SPR)) | HRAS /KRAS (HRAS wild-type protein; ratio of KD value for HRAS wild-type protein to KD value for KRAS (SPR))
1 | 112 nM | CCCN1C(=O)[C@@H]2CCN2C(=O)CN(C)C(=O)[C@H]([C@@H](C)CC)NC(=O)[C@H](CC(C)C)N(C)C(=O)C[C@@H](C(=O)N2CCOCC2)N(C)C(=O)[C@H](C2CCCC2)N(C)C(=O)[C@](C)(C(C)C)NC(=O)[C@@H]2CCCN2C(=O)[C@H](CCc2cc(F)c(C(F)(F)F)c(F)c2)NC(=O)CN(C)C(=O)[C@@H]1Cc1ccc(C(F)(F)F)cc1 [PP0792] ([NMeL]I[Sar][Aze][NPrPhe(4-CF3)][Sar][hPhe(3,5-F2-4-CF3)]P[αMeV][NMeGly(cPent)][NMeD]-Morpholide; lactam N-11) | C (A compound having a KD ratio of 0.1 or more and less than 3 is denoted as C) | B (a compound having 3 or more and less than 10 is denoted as B) |  |  |  | 
2 | 120 nM | CCC[C@H]1C(=O)N[C@@H]([C@@H](C)CC)C(=O)N(C2CC2)CC(=O)N(C)[C@H]2C/C=C\CCN(C2=O)[C@@H](Cc2ccc(C)cc2)C(=O)N(C)CC(=O)N[C@@H](CCc2ccc(C(F)(F)F)c(OC)c2)C(=O)N2C[C@H](OCC)C[C@H]2C(=O)NC2(CC(C)(C)C2)C(=O)N(C)[C@@H](CC2CC2)C(=O)N(C)[C@H](C(=O)N(C)C)CC(=O)N1C [PP2803] | A (a compound having 10 or more and less than 20 is denoted as A) | A (a compound having 10 or more and less than 20 is denoted as A) |  |  |  | 
3 | 128 nM | CCO[C@@H]1C[C@H]2C(=O)NC3(CCC3)C(=O)N(C)[C@@H](C3CCCC3)C(=O)N(C)[C@H](C(=O)N(C)C)CC(=O)N(C)[C@@H](CC)C(=O)N[C@@H]([C@@H](C)CC)C(=O)N3CC[C@H]3C(=O)N(C)[C@H]3CC(C)=CCN(C3=O)[C@@H](Cc3ccc(C(F)(F)F)cc3)C(=O)N(C)CC(=O)N[C@@H](CCc3cc(F)c(C(F)(F)F)c(F)c3)C(=O)N2C1 [PP1035] | C (A compound having a KD ratio of 0.1 or more and less than 3 is denoted as C) | C (A compound having a KD ratio of 0.1 or more and less than 3 is denoted as C) |  |  |  | 
4 | 447 nM | CCCN1C(=O)CN(C)C(=O)[C@@H]2CCN2C(=O)[C@H]([C@@H](C)CC)NC(=O)[C@H](CC(C)C)N(C)C(=O)C[C@@H](C(=O)N2CCOCC2)N(C)C(=O)[C@H](CC(F)(F)F)N(C)C(=O)C2(CCCC2)NC(=O)[C@@H]2CCCN2C(=O)[C@H](CCc2cc(F)c(C(F)(F)F)c(F)c2)NC(=O)CN(C)C(=O)[C@@H]1Cc1ccc(C(F)(F)F)cc1 [PP0784] ([NMeL]I[Aze][Sar][NPrPhe(4-CF3)][Sar][hPhe(3,5-F2-4-CF3)]P[Ac5c][NMeAbu(4,4,4-F3)][NMeD]-Morpholide; lactam N-11) | B (a compound having 3 or more and less than 10 is denoted as B) | B (a compound having 3 or more and less than 10 is denoted as B) |  |  |  | 
5 | 1.5 nM | CCC[C@H]1C(=O)N[C@@H]([C@@H](C)CC)C(=O)N(C)CC(=O)N(C)[C@H]2C/C=C\CCN(C2=O)[C@@H](Cc2ccc(C)cc2)C(=O)N(C)CC(=O)N[C@@H](CCc2cc(F)c(C(F)(F)F)c(F)c2)C(=O)N2C[C@H](OCC)C[C@H]2C(=O)N(C)C2(CCC2)C(=O)N(C)[C@@H](C2CCCC2)C(=O)N(C)[C@H](C(=O)N2CCCC2)CC(=O)N1C [PP3121] | A (a compound having 10 or more and less than 20 is denoted as A) | A (a compound having 10 or more and less than 20 is denoted as A) |  |  |  | 
6 | 7 nM | CC[C@H](C)[C@@H]1NC(=O)[C@H](C)N(C)C(=O)C[C@@H](C(=O)N(C)C)N(C)C(=O)[C@H](C2CCCC2)N(C)C(=O)C2(CCC2)NC(=O)[C@@H]2CC(F)(F)CN2C(=O)[C@H](CCc2cc(F)c(C(F)(F)F)c(F)c2)NC(=O)CN(C)C(=O)[C@H](Cc2ccc(C(F)(F)F)cc2)N2CCCC[C@@H](C2=O)N(C)C(=O)CN(C)C1=O [PP0584] |  |  | C (A compound having a KD ratio of 0.1 or more and less than 3 is denoted as C) | C (A compound having a KD ratio of 0.1 or more and less than 3 is denoted as C) |  | 
7 | 11.5 nM | CCO[C@@H]1C[C@H]2C(=O)NC3(CC(C)(C)C3)C(=O)N(C)[C@@H](C3CCCC3)C(=O)N(C)[C@H](C(=O)N3CCCC3)CC(=O)N(C)[C@H]3CCCC/C=C/c4ccc(cc4)C[C@@H](C(=O)N(C)CC(=O)N[C@@H](CCc4ccc(Cl)c(Cl)c4)C(=O)N2C1)N1CC/C=C\C[C@@H](C1=O)N(C)C(=O)CN(C)C(=O)[C@H]([C@@H](C)CC)NC3=O [PP2593] | A (a compound having 10 or more and less than 20 is denoted as A) | A (a compound having 10 or more and less than 20 is denoted as A) |  |  |  | 
8 | 17.8 nM | CC[C@H](C)[C@@H]1NC(=O)[C@H](C2CC2)N(C)C(=O)C[C@@H](C(=O)N(C)CC)N(C)C(=O)[C@H](C2CCCC2)N(C)C(=O)C2(CCC2)NC(=O)[C@@H]2C[C@H](C)CN2C(=O)[C@H](CCc2cc(F)c(C(F)(F)F)c(F)c2)NC(=O)CN(C)C(=O)[C@H](Cc2ccc(C(F)(F)F)cc2)N2CC/C=C\C[C@@H](C2=O)N(C)C(=O)CN(C)C1=O [PP2080] |  |  | A (a compound having 10 or more and less than 20 is denoted as A) | A (a compound having 10 or more and less than 20 is denoted as A) |  | 
9 | 29.2 nM | CCC[C@H]1C(=O)N[C@@H]([C@@H](C)CC)C(=O)N(C)CC(=O)N(C)[C@H]2C/C=C\CCN(C2=O)[C@@H](Cc2ccc(C)cc2)C(=O)N(C)CC(=O)N[C@@H](CCc2ccc(Cl)c(Cl)c2)C(=O)N2C[C@H](OCC)C[C@H]2C(=O)NC2(CC(C)(C)C2)C(=O)N(C)[C@@H](C(CC)CC)C(=O)N(C)[C@H](C(=O)N(C)C)CC(=O)N1C [PP2184] |  |  | AA (a compound having 20 or more is denoted as AA) | A (a compound having 10 or more and less than 20 is denoted as A) |  | 
10 | 67.8 nM | CCCN1CC(=O)N(C)[C@H]2C/C=C\CCN(C2=O)[C@@H](Cc2ccc(C(F)(F)F)cc2)C(=O)N(C)CC(=O)N[C@@H](CCc2cc(F)c(C(F)(F)F)c(F)c2)C(=O)N2C[C@H](OCC)C[C@H]2C(=O)NC2(CCC2)C(=O)N(C)[C@@H](C2CCCC2)C(=O)N(C)[C@H](C(=O)N(C)C)CC(=O)N(C)[C@@H](CC)C(=O)N[C@@H]([C@@H](C)CC)C1=O [PP1053] | A (a compound having 10 or more and less than 20 is denoted as A) | A (a compound having 10 or more and less than 20 is denoted as A) |  |  |  | 
11 | 142 nM | CCCN1C(=O)CN(C)C(=O)[C@@H]2CCN2C(=O)[C@H]([C@@H](C)CC)NC(=O)[C@H](CC(C)C)N(C)C(=O)C[C@@H](C(=O)N(C)C)NC(=O)[C@H](C2CCCC2)N(C)C(=O)C2(CCC2)NC(=O)[C@@H]2CCCN2C(=O)[C@H](CCc2ccc(C(F)(F)F)c(Cl)c2)NC(=O)CN(C)C(=O)[C@@H]1Cc1ccc(C(F)(F)F)cc1 [PP0374] ([NMeL]I[Aze][Sar][NPrPhe(4-CF3)][Sar][hPhe(3-Cl-4-CF3)]P[Ac4c][NMeGly(cPent)]D-NMe2; lactam N-11) | B (a compound having 3 or more and less than 10 is denoted as B) | B (a compound having 3 or more and less than 10 is denoted as B) |  |  |  | 
12 | 8.5 nM | CCCN1C(=O)[C@@H]2CCN2C(=O)[C@H](C)N(C)C(=O)[C@H](CC(F)(F)F)NC(=O)[C@H](CC(C)C)N(C)C(=O)C[C@@H](C(=O)N2CCOCC2)N(C)C(=O)[C@H](C2CCCC2)N(C)C(=O)C2(CCCC2)NC(=O)[C@@H]2CCCN2C(=O)[C@H](CCc2ccc(C(F)(F)F)c(Cl)c2)NC(=O)CN(C)C(=O)[C@@H]1Cc1ccc(C(F)(F)F)cc1 [PP0270] ([NMeL][Abu(4,4,4-F3)][NMeA][Aze][NPrPhe(4-CF3)][Sar][hPhe(3-Cl-4-CF3)]P[Ac5c][NMeGly(cPent)][NMeD]-Morpholide; lactam N-11) | C (A compound having a KD ratio of 0.1 or more and less than 3 is denoted as C) | B (a compound having 3 or more and less than 10 is denoted as B) |  |  |  | 
13 | 23.5 nM | CCC[C@H]1C(=O)N[C@@H]([C@@H](C)CC)C(=O)N(C)CC(=O)N(C)[C@H]2C/C=C\CCN(C2=O)[C@@H](Cc2ccc(C)cc2)C(=O)N(C)CC(=O)N[C@@H](CCc2ccc(C(F)(F)F)c(Cl)c2)C(=O)N2C[C@H](CC)C[C@H]2C(=O)NC2(CC(C)(C)C2)C(=O)N(C)[C@@H](C2CCCC2)C(=O)N(C)[C@H](C(=O)N(C)C)CC(=O)N1C [PP2212] |  |  | A (a compound having 10 or more and less than 20 is denoted as A) | B (a compound having 3 or more and less than 10 is denoted as B) |  | 
14 | 116 nM | CCO[C@@H]1C[C@H]2C(=O)NC3(CC(F)(F)C3)C(=O)N(C)[C@@H](C(CC)CC)C(=O)N(C)[C@H](CC)CC(=O)N(C)[C@@H](CC3CC3)C(=O)N[C@@H]([C@@H](C)CC)C(=O)N(C)CC(=O)N(C)[C@H]3C/C=C\CCN(C3=O)[C@@H](Cc3ccc(C(F)(F)F)cc3)C(=O)N(C)CC(=O)N[C@@H](CCc3cc(F)c(C(F)(F)F)c(F)c3)C(=O)N2C1 [PP1632] |  |  |  |  | A (a compound having 10 or more and less than 20 is denoted as A) | A (a compound having 10 or more and less than 20 is denoted as A)
15 | 39.2 nM | CCC[C@H]1C(=O)N[C@@H]([C@@H](C)CC)C(=O)N(C)CC(=O)N(C)[C@H]2C/C=C\CCN(C2=O)[C@@H](Cc2ccc(C)cc2)C(=O)N(C)CC(=O)N[C@@H](CCc2ccc(Cl)c(Cl)c2)C(=O)N2CCCCC[C@H]2C(=O)NC2(CC(C)(C)C2)C(=O)N(C)[C@@H](C(CC)CC)C(=O)N(C)[C@H](C(=O)N(C)C)CC(=O)N1C [PP2962] | AA (a compound having 20 or more is denoted as AA) | A (a compound having 10 or more and less than 20 is denoted as A) |  |  |  | 
